Test results taken from patent publication US12629322B2, “Antiseptic compositions” (RHT LIMITED, priority 2020, dated 2026).

Experiments:
[1] = tested on: PolySeed BOD Seed Inoculum (blend of broad spectrum bacteria); assay: Volatility test (duration of bacteria inhibition on agar plate, swab viable count); assay type: cell-based
Procedure: To study the duration on ability of bacteria inhibition of an exemplary composition, a volatility test is performed.
• Group A: Agar plate with 0.5 mL distilled water; • Group B: Agar plate with 0.5 mL 75% isopropyl alcohol (IPA); • Group C: Agar plate with 0.5 g of tested exemplary composition. • Bacteria strain used: PolySeed® BOD Seed Inoculum Capsules (1 capsule dissolved into 500 mL Distilled Water) (Interlab) • Agar: Trypticase Soy Agar (TSA) • Incubation condition: 48 hours at 30±1° C. Testing Procedure
0.5 mL bacteria solution is add into the agar plate groups A, B and C at the time interval of Tx. as defined in Table 1.3.
After T10, bacteria solution is spiked to all the agar plates except agar blank.
Swab test is carried out to test for the viable count of bacteria at the time interval Tx.

[2] = tested on: PolySeed BOD Seed Inoculum (blend of broad spectrum bacteria); assay: Durability test of bacteria inhibition (repeated spiking of bacteria on agar plate, swab viable count); assay type: cell-based; details: bacteria spiked every 60 minutes
Procedure: To evaluate the durability of bacteria inhibition of the exemplary compositions, durability test by regularly spiking a fixed amount of bacteria into the sample is performed and the procedures are incorporated herein by reference.
• Group A: Agar plate with 0.5 mL distilled water; • Group B: Agar plate with 0.5 mL 75% isopropyl alcohol (IPA); • Group C: Agar plate with 0.5 g of tested exemplary composition.
Bacteria strain used: PolySeed® BOD Seed Inoculum Capsules (1 capsule dissolved into 500 mL Distilled Water) (Interlab), which contains a blend of broad spectrum bacteria designed specifically as a seed inoculum for the Biochemical Oxygen Demand (BOD 5) test as conducted in accordance to Standard Methods of the Examination of Water and Wastewater. PolySeed® is an EPA approved BOD 5 seed inoculum that has been used to seed both municipal and industrial wastes for almost 20 years. • Agar: Trypticase Soy Agar (TSA) • Incubation condition: 48 hours at 30±1° C. • Testing Procedure
The above three sample group agar plates are used as the sample matrices of different initial situation for spiking 0.5 ml bacteria solution for every 60 minutes, i.e.: there was an on-going process of spiking bacteria at time 0, 60, 120, 180, 240, 300 minutes;
A swab testing is carried out every 30 minutes from matrix samples of each group to test for the viable count of bacteria at the time interval.
Example of sample with sequence in time: • AM: 0.5 ml bacteria solution is added at T0−10 min; • Sample A1: To swab from AM at T0; Sample A2: To swab from AM at T1; • AM: 0.5 ml bacteria solution is added at T2−10 min; • Sample A3: To swab from AM at T2; Sample A4: To swab from AM at T3; • AM: 0.5 ml bacteria solution is added at T4−10 min; and so forth. Table 2 summarized the testing schedule for durability test.

Substance: 75% isopropyl alcohol [75% IPA]
- Viable count of bacteria, volatility test ([1]; T0 (0 min)): 54 CFU/plate
- Viable count of bacteria, volatility test ([1]; T1 (30 min)): 62 CFU/plate
- Viable count of bacteria, volatility test ([1]; T2 (60 min)): 50 CFU/plate
- Viable count of bacteria, volatility test ([1]; T3 (90 min)): 45 CFU/plate
- Viable count of bacteria, volatility test ([1]; T4 (120 min)): 49 CFU/plate
- Viable count of bacteria, volatility test ([1]; T5 (150 min)): 55 CFU/plate
- Viable count of bacteria, volatility test ([1]; T6 (180 min)): 43 CFU/plate
- Viable count of bacteria, volatility test ([1]; T7 (210 min)): 37 CFU/plate
- Viable count of bacteria, volatility test ([1]; T8 (240 min)): 44 CFU/plate
- Viable count of bacteria, volatility test ([1]; T9 (270 min)): 49 CFU/plate
- Viable count of bacteria, volatility test ([1]; T10 (300 min)): 0 CFU/plate
- Viable count of bacteria, durability test ([2]; T0 (0 min)): 8 CFU/plate
- Viable count of bacteria, durability test ([2]; T1 (30 min)): 28 CFU/plate
- Viable count of bacteria, durability test ([2]; T2 (60 min)): 53 CFU/plate
- Viable count of bacteria, durability test ([2]; T3 (90 min)): 89 CFU/plate
- Viable count of bacteria, durability test ([2]; T4 (120 min)): 254 CFU/plate
- Viable count of bacteria, durability test ([2]; T5 (150 min)): 346 CFU/plate
